Measured values taken from ChEMBL document CHEMBL1671673, “In vitro activity of colistin (polymyxin E) against 3,480 isolates of gram-negative bacilli obtained from patients in Canadian hospitals in the CANWARD study, 2007-2008” (Antimicrob Agents Chemother, 2009).

How the values were obtained:
Assay type in all cases: functional, organism-based
Parameters in all cases: scale not given: the % may be the effect or the level left
Escherichia coli [1] = experiment: Antibacterial activity against ESBL-producing Escherichia coli assessed as susceptible isolates at minimum inhibitory concentration of >16 ug/ml by CLSI broth microdilution method
Enterobacter cloacae [2] = experiment: Antibacterial activity against Enterobacter cloacae assessed as susceptible isolates at minimum inhibitory concentration of 0.12 ug/ml by CLSI broth microdilution method
Escherichia coli [3] = experiment: Antibacterial activity against ESBL-producing Escherichia coli assessed as susceptible isolates at minimum inhibitory concentration of 1 ug/ml by CLSI broth microdilution method
Enterobacter cloacae [4] = experiment: Antibacterial activity against Enterobacter cloacae assessed as susceptible isolates at minimum inhibitory concentration of 0.25 ug/ml by CLSI broth microdilution method
Pseudomonas aeruginosa [5] = experiment: Antibacterial activity against Meropenem-resistant Pseudomonas aeruginosa assessed as susceptible isolates at minimum inhibitory concentration of 1 ug/ml by CLSI broth microdilution method
Serratia marcescens [6] = experiment: Antibacterial activity against Serratia marcescens assessed as susceptible isolates at minimum inhibitory concentration of 2 ug/ml by CLSI broth microdilution method
Klebsiella oxytoca [7] = experiment: Antibacterial activity against Klebsiella oxytoca assessed as susceptible isolates at minimum inhibitory concentration of <=0.06 ug/ml by CLSI broth microdilution method
Pseudomonas aeruginosa [8] = experiment: Antibacterial activity against Ciprofloxacin-resistant Pseudomonas aeruginosa assessed as susceptible isolates at minimum inhibitory concentration of 0.5 ug/ml by CLSI broth microdilution method
Pseudomonas aeruginosa [9] = experiment: Antibacterial activity against Pseudomonas aeruginosa assessed as susceptible isolates at minimum inhibitory concentration of 1 ug/ml by CLSI broth microdilution method
Klebsiella aerogenes [10] = experiment: Antibacterial activity against Enterobacter aerogenes assessed as susceptible isolates at minimum inhibitory concentration of 4 ug/ml by CLSI broth microdilution method
[11] = system: Stenotrophomonas maltophilia; experiment: Antibacterial activity against Stenotrophomonas maltophilia assessed as susceptible isolates at minimum inhibitory concentration of <=0.06 ug/ml by CLSI broth microdilution method
Pseudomonas aeruginosa [12] = experiment: Antibacterial activity against Pseudomonas aeruginosa assessed as susceptible isolates at minimum inhibitory concentration of <=0.06 ug/ml by CLSI broth microdilution method
[13] = system: Stenotrophomonas maltophilia; experiment: Antibacterial activity against Stenotrophomonas maltophilia assessed as susceptible isolates at minimum inhibitory concentration of 1 ug/ml by CLSI broth microdilution method
Proteus mirabilis [14] = experiment: Antibacterial activity against Proteus mirabilis assessed as susceptible isolates at minimum inhibitory concentration of 16 ug/ml by CLSI broth microdilution method
Pseudomonas aeruginosa [15] = experiment: Antibacterial activity against Amikacin-resistant Pseudomonas aeruginosa assessed as susceptible isolates at minimum inhibitory concentration of 16 ug/ml by CLSI broth microdilution method
Enterobacter cloacae [16] = experiment: Antibacterial activity against Enterobacter cloacae assessed as susceptible isolates at minimum inhibitory concentration of <=0.06 ug/ml by CLSI broth microdilution method
Klebsiella pneumoniae [17] = experiment: Antibacterial activity against ESBL-producing Klebsiella pneumoniae assessed as susceptible isolates at minimum inhibitory concentration of 8 ug/ml by CLSI broth microdilution method
Proteus mirabilis [18] = experiment: Antibacterial activity against Proteus mirabilis assessed as susceptible isolates at minimum inhibitory concentration of 4 ug/ml by CLSI broth microdilution method
Acinetobacter baumannii [19] = experiment: Antibacterial activity against Acinetobacter baumannii assessed as susceptible isolates at minimum inhibitory concentration of >16 ug/ml by CLSI broth microdilution method
Klebsiella oxytoca [20] = experiment: Antibacterial activity against Klebsiella oxytoca assessed as susceptible isolates at minimum inhibitory concentration of 0.5 ug/ml by CLSI broth microdilution method
Klebsiella pneumoniae [21] = experiment: Antibacterial activity against ESBL-producing Klebsiella pneumoniae assessed as susceptible isolates at minimum inhibitory concentration of 0.12 ug/ml by CLSI broth microdilution method
Pseudomonas aeruginosa [22] = experiment: Antibacterial activity against MDR4 Pseudomonas aeruginosa assessed as susceptible isolates at minimum inhibitory concentration of 1 ug/ml by CLSI broth microdilution method
Pseudomonas aeruginosa [23] = experiment: Antibacterial activity against MDR Pseudomonas aeruginosa assessed as susceptible isolates at minimum inhibitory concentration of 1 ug/ml by CLSI broth microdilution method
Pseudomonas aeruginosa [24] = experiment: Antibacterial activity against Levofloxacin-resistant Pseudomonas aeruginosa assessed as susceptible isolates at minimum inhibitory concentration of 1 ug/ml by CLSI broth microdilution method
Pseudomonas aeruginosa [25] = experiment: Antibacterial activity against MDR4 Pseudomonas aeruginosa assessed as susceptible isolates at minimum inhibitory concentration of 0.5 ug/ml by CLSI broth microdilution method
Pseudomonas aeruginosa [26] = experiment: Antibacterial activity against Ciprofloxacin-resistant Pseudomonas aeruginosa assessed as susceptible isolates at minimum inhibitory concentration of 4 ug/ml by CLSI broth microdilution method
Acinetobacter baumannii [27] = experiment: Antibacterial activity against Acinetobacter baumannii assessed as susceptible isolates at minimum inhibitory concentration of 0.12 ug/ml by CLSI broth microdilution method
Acinetobacter baumannii [28] = experiment: Antibacterial activity against Acinetobacter baumannii assessed as susceptible isolates at minimum inhibitory concentration of 2 ug/ml by CLSI broth microdilution method
Pseudomonas aeruginosa [29] = experiment: Antibacterial activity against Pseudomonas aeruginosa assessed as susceptible isolates at minimum inhibitory concentration of 0.25 ug/ml by CLSI broth microdilution method
Pseudomonas aeruginosa [30] = experiment: Antibacterial activity against Pseudomonas aeruginosa assessed as susceptible isolates at minimum inhibitory concentration of 0.12 ug/ml by CLSI broth microdilution method
Pseudomonas aeruginosa [31] = experiment: Antibacterial activity against MDR Pseudomonas aeruginosa assessed as susceptible isolates at minimum inhibitory concentration of 2 ug/ml by CLSI broth microdilution method
Pseudomonas aeruginosa [32] = experiment: Antibacterial activity against Meropenem-resistant Pseudomonas aeruginosa assessed as susceptible isolates at minimum inhibitory concentration of 0.5 ug/ml by CLSI broth microdilution method
Serratia marcescens [33] = experiment: Antibacterial activity against Serratia marcescens assessed as susceptible isolates at minimum inhibitory concentration of <=0.06 ug/ml by CLSI broth microdilution method
Proteus mirabilis [34] = experiment: Antibacterial activity against Proteus mirabilis assessed as susceptible isolates at minimum inhibitory concentration of 0.12 ug/ml by CLSI broth microdilution method
Klebsiella pneumoniae [35] = experiment: Antibacterial activity against ESBL-producing Klebsiella pneumoniae assessed as susceptible isolates at minimum inhibitory concentration of 0.25 ug/ml by CLSI broth microdilution method
Pseudomonas aeruginosa [36] = experiment: Antibacterial activity against Gentamicin-resistant Pseudomonas aeruginosa assessed as susceptible isolates at minimum inhibitory concentration of 8 ug/ml by CLSI broth microdilution method
Pseudomonas aeruginosa [37] = experiment: Antibacterial activity against Amikacin-resistant Pseudomonas aeruginosa assessed as susceptible isolates at minimum inhibitory concentration of 2 ug/ml by CLSI broth microdilution method
Klebsiella aerogenes [38] = experiment: Antibacterial activity against Enterobacter aerogenes assessed as susceptible isolates at minimum inhibitory concentration of 0.12 ug/ml by CLSI broth microdilution method
Pseudomonas aeruginosa [39] = experiment: Antibacterial activity against Levofloxacin-resistant Pseudomonas aeruginosa assessed as susceptible isolates at minimum inhibitory concentration of 0.5 ug/ml by CLSI broth microdilution method
Klebsiella pneumoniae [40] = experiment: Antibacterial activity against ESBL-producing Klebsiella pneumoniae assessed as susceptible isolates at minimum inhibitory concentration of 16 ug/ml by CLSI broth microdilution method

Sequence COLISTIN has an Activity (Escherichia coli [1]) of 100%, an Activity (Enterobacter cloacae [2]) of 1.6% and an Activity (Escherichia coli [3]) of 97.3%. It also gave an Activity (Enterobacter cloacae [4]) of 14%, an Activity (Pseudomonas aeruginosa [5]) of 33.3% and an Activity (Serratia marcescens [6]) of 1.9%. The Activity (Klebsiella oxytoca [7]) was 0%, the Activity (Pseudomonas aeruginosa [8]) was 4.1% and the Activity (Pseudomonas aeruginosa [9]) was 29.1%. The Activity (Klebsiella aerogenes [10]) was 100%, the Activity [11] was 0% and the Activity (Pseudomonas aeruginosa [12]) was 0%. For the same sequence, the Activity [13] was 10.8%, the Activity (Proteus mirabilis [14]) was 0.8% and the Activity (Pseudomonas aeruginosa [15]) was 97.4%. It also gave an Activity (Enterobacter cloacae [16]) of 0%, an Activity (Klebsiella pneumoniae [17]) of 97.9% and an Activity (Proteus mirabilis [18]) of 0%. The Activity (Acinetobacter baumannii [19]) was 100%, the Activity (Klebsiella oxytoca [20]) was 74.1% and the Activity (Klebsiella pneumoniae [21]) was 0.8%. For the same sequence, the Activity (Pseudomonas aeruginosa [22]) was 42.3%, the Activity (Pseudomonas aeruginosa [23]) was 38.2% and the Activity (Pseudomonas aeruginosa [24]) was 30.7%. For the same sequence, the Activity (Pseudomonas aeruginosa [25]) was 7.7%, the Activity (Pseudomonas aeruginosa [26]) was 98.6% and the Activity (Acinetobacter baumannii [27]) was 0%. For the same sequence, the Activity (Acinetobacter baumannii [28]) was 93.5%, the Activity (Pseudomonas aeruginosa [29]) was 0% and the Activity (Pseudomonas aeruginosa [30]) was 0%. The Activity (Pseudomonas aeruginosa [31]) was 100%, the Activity (Pseudomonas aeruginosa [32]) was 3.5% and the Activity (Serratia marcescens [33]) was 0%. The Activity (Proteus mirabilis [34]) was 0%, the Activity (Klebsiella pneumoniae [35]) was 10.5% and the Activity (Pseudomonas aeruginosa [36]) was 99%. For the same sequence, the Activity (Pseudomonas aeruginosa [37]) was 97.4%, the Activity (Klebsiella aerogenes [38]) was 0% and the Activity (Pseudomonas aeruginosa [39]) was 1.8%. The Activity (Klebsiella pneumoniae [40]) was 98.1%.
